According to patent publication US20100298141A1, “SUBSTITUTED PYRIDINE N-OXIDE HERBICIDES” (E. I. DU PONT DE NEMOURS AND COMPANY, priority 2007, published 2010):

Columns and labels:
Virginia dayflower = test: Test F preemergence test; format: in vivo, Commelina virginica; conditions: scale 0 to 100
Outline: (§1)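 Visual ratings relative to controls, taken after 14 to 21 days in a greenhouse. Test chemicals, formulated in a surfactant-containing non-phytotoxic solvent mixture, were applied preemergence to sown seeds or postemergence to sugarcane plants.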

Surinam grass = test: Test F preemergence test; format: in vivo, Brachiaria decumbens; conditions: scale 0 to 100; for Surinam Grass plant response rating: 125 g ai/ha
Outline: as §1

guineagrass = test: Test F preemergence test; format: in vivo, Panicum maximum; conditions: scale 0 to 100
Outline: as §1

southern sandbur = test: Test F preemergence test; format: in vivo, Cenchrus echinatus; conditions: scale 0 to 100; for Sandbur plant response rating: 125 g ai/ha
Outline: as §1

Italian ryegrass = test: Test F preemergence test; format: in vivo, Lolium multiflorum; conditions: scale 0 to 100; for Ryegrass, Italian plant response rating: 125 g ai/ha
Outline: as §1

field bindweed = test: Test F preemergence test; format: in vivo, Convolvulus arvensis; conditions: scale 0 to 100
Outline: as §1

common mallow = test: Test F preemergence test; format: in vivo, Malva sylvestris; conditions: scale 0 to 100
Outline: as §1

mustard = test: Test F preemergence test; format: in vivo, Brassica nigra; conditions: scale 0 to 100
Outline: as §1

annual bluegrass = test: Test F preemergence test; format: in vivo, Poa annua; conditions: scale 0 to 100
Outline: as §1

quackgrass = test: Test F preemergence test; format: in vivo, Elytrigia repens; conditions: scale 0 to 100
Outline: as §1

barnyardgrass = test: Test F preemergence test; format: in vivo, Echinochloa crus-galli
Outline: as §1

common purslane = test: Test F preemergence test; format: in vivo, Portulaca oleracea; conditions: scale 0 to 100
Outline: as §1

dallisgrass = test: Test F preemergence test; format: in vivo, Paspalum dilatatum; conditions: scale 0 to 100
Outline: as §1

Russian thistle = test: Test C pre-/postemergence test; format: in vivo, Salsola kali
Description: Seeds of plant species selected from blackgrass (Alopecurus myosuroides), downy brome (Bromus tectorum), green foxtail (Setaria viridis), Italian ryegrass (Lolium multiflorum), wheat (Triticum aestivum), wild oat (Avena fatua), catchweed bedstraw (Galium aparine), Russian thistle (Salsola kali), […] (Cynodon dactylon), Surinam grass (Brachiaria decumbens), cocklebur (Xanthium strumarium), corn (Zea mays), crabgrass (Digitaria sanguinalis), woolly cupgrass (Eriochloa villosa), giant foxtail (Setaria faberii), Goosegrass (Eleusin indica), johnsongrass (Sorghum halepense), kochia (Kochia scoparia), lambsquarters (Chenopodium album), morningglory (Ipomoea coccinea), eastern black nightshade (Solanum ptycanthum), yellow nutsedge (Cyperus esculentus), pigweed (Amaranthus retroflexus), common ragweed (Ambrosia elation), soybean (Glycine max), common (oilseed) sunflower (Helianthus annuus), and velvetleaf (Abutilon theophrasti) were planted and treated preemergence with test chemicals formulated in a non-phytotoxic solvent mixture which included a surfactant. At the same time, plants selected from these crop and weed species and also winter barley (Hordeum vulgare), canarygrass (Phalaris minor), and chickweed (Stellaria media) were treated with postemergence applications of some of the test chemicals formulated in the same manner. Plants ranged in height from 2 to 18 cm (1- to 4-leaf stage) for postemergence treatments. […] At time of treatment, test pots were flooded to 3 cm above the soil surface, treated by application of test compounds directly to the paddy water, and then maintained at that water depth for the duration of the test. […] A dash (-) response means no test result.

kochia = test: Test F preemergence test; format: in vivo, Kochia scoparia; conditions: scale 0 to 100
Outline: as §1

large crabgrass = test: Test F preemergence test; format: in vivo, Digitaria sanguinalis; conditions: scale 0 to 100
Outline: as §1

common groundsel = test: Test F preemergence test; format: in vivo, Senecio vulgaris; conditions: 125 g ai/ha, preemergence, scale 0 to 100
Outline: as §1

[1] = 16 g ai/ha, preemergence, scale 0 to 100 (0 no effect, 100 complete control)
[2] = 62 g ai/ha, Preemergence, scale 0 to 100
[3] = 125 g ai/ha, preemergence, scale 0 to 100
[4] = Preemergence, 31 g ai/ha, scale 0 to 100

Cc1cc[n+]([O-])c(S(=O)(=O)C(Cl)c2c(C(F)(F)F)nn(C)c2OCC(F)(F)F)c1 (racemic) [Compound 37]
Plant response rating, Dayflower (Virginia dayflower; 16 g ai/ha, preemergence): 0 | Dayflower plant response rating (Virginia dayflower; 62 g ai/ha, Preemergence): 100 | Dayflower plant response rating (Virginia dayflower; 125 g ai/ha, preemergence): 100 | Plant response rating, Dayflower (Virginia dayflower; Preemergence, 31 g ai/ha): 90 | Plant response rating, Surinam Grass (Surinam grass; 16 g ai/ha, preemergence): 0 | Surinam Grass plant response rating (Surinam grass; preemergence): 90 | Plant response rating, Surinam Grass (Surinam grass; Preemergence, 62 g ai/ha): 60 | Plant response rating, Surinam Grass (Surinam grass; Preemergence, 31 g ai/ha): 60 | Plant response rating, Guineagrass (guineagrass; 16 g ai/ha, preemergence): 65 | Guineagrass plant response rating (guineagrass; 62 g ai/ha, Preemergence): 85 | Guineagrass plant response rating (guineagrass; 125 g ai/ha, preemergence): 100 | Plant response rating, Guineagrass (guineagrass; Preemergence, 31 g ai/ha): 75 | Plant response rating, Sandbur (southern sandbur; 16 g ai/ha, preemergence): 35 | Sandbur plant response rating (southern sandbur; preemergence): 90 | Plant response rating, Sandbur (southern sandbur; Preemergence, 62 g ai/ha): 90 | Plant response rating, Sandbur (southern sandbur; Preemergence, 31 g ai/ha): 70 | Plant response rating, Ryegrass, Italian (Italian ryegrass; 16 g ai/ha, preemergence): 20 | Ryegrass, Italian plant response rating (Italian ryegrass; preemergence): 100 | Plant response rating, Ryegrass, Italian (Italian ryegrass; Preemergence, 62 g ai/ha): 90 | Plant response rating, Ryegrass, Italian (Italian ryegrass; Preemergence, 31 g ai/ha): 75 | Plant response rating, Field Bindweed (field bindweed; 16 g ai/ha, preemergence): 0 | Field Bindweed plant response rating (field bindweed; 62 g ai/ha, Preemergence): 0 | Field Bindweed plant response rating (field bindweed; 125 g ai/ha, preemergence): 0 | Plant response rating, Field Bindweed (field bindweed; Preemergence, 31 g ai/ha): 0 | Plant response rating, Mallow (common mallow; 16 g ai/ha, preemergence): 0 | Mallow plant response rating (common mallow; 62 g ai/ha, Preemergence): 0 | Mallow plant response rating (common mallow; 125 g ai/ha, preemergence): 90 | Plant response rating, Mallow (common mallow; Preemergence, 31 g ai/ha): 0 | Plant response rating, Black Mustard (mustard; 16 g ai/ha, preemergence): 0 | Black Mustard plant response rating (mustard; 62 g ai/ha, Preemergence): 50 | Black Mustard plant response rating (mustard; 125 g ai/ha, preemergence): 100 | Plant response rating, Black Mustard (mustard; Preemergence, 31 g ai/ha): 15 | Plant response rating, Bluegrass (annual bluegrass; 16 g ai/ha, preemergence): 0 | Bluegrass plant response rating (annual bluegrass; 62 g ai/ha, Preemergence): 60 | Bluegrass plant response rating (annual bluegrass; 125 g ai/ha, preemergence): 80 | Plant response rating, Bluegrass (annual bluegrass; Preemergence, 31 g ai/ha): 10 | Plant response rating, Quackgrass (quackgrass; 16 g ai/ha, preemergence): 0 | Quackgrass plant response rating (quackgrass; 62 g ai/ha, Preemergence): 25 | Quackgrass plant response rating (quackgrass; 125 g ai/ha, preemergence): 70 | Plant response rating, Quackgrass (quackgrass; Preemergence, 31 g ai/ha): 25 | Plant response rating, Barnyardgrass (barnyardgrass; [1]): 20 | Barnyardgrass plant response rating (barnyardgrass; [2]): 100 | Barnyardgrass plant response rating (barnyardgrass; [3]): 100 | Plant response rating, Barnyardgrass (barnyardgrass; [4]): 40 | Plant response rating, Purslane (common purslane; 16 g ai/ha, preemergence): 0 | Purslane plant response rating (common purslane; 62 g ai/ha, Preemergence): 25 | Purslane plant response rating (common purslane; 125 g ai/ha, preemergence): 50 | Plant response rating, Purslane (common purslane; Preemergence, 31 g ai/ha): 0 | Plant response rating, Dallisgrass (dallisgrass; 16 g ai/ha, preemergence): 0 | Dallisgrass plant response rating (dallisgrass; 62 g ai/ha, Preemergence): 75 | Dallisgrass plant response rating (dallisgrass; 125 g ai/ha, preemergence): 100 | Plant response rating, Dallisgrass (dallisgrass; Preemergence, 31 g ai/ha): 25 | Plant response rating, Russian Thistle (Russian thistle; Preemergence, 31 g ai/ha, scale 0 to 100 (0 no effect, 100 complete control)): 100 | Russian Thistle plant response rating (Russian thistle; preemergence, 250 g ai/ha, scale 0 (no effect) to 100 (complete control)): 100 | Plant response rating, Kochia (kochia; 16 g ai/ha, preemergence): 0 | Kochia plant response rating (kochia; 62 g ai/ha, Preemergence): 0 | Kochia plant response rating (kochia; 125 g ai/ha, preemergence): 0 | Plant response rating, Kochia (kochia; Preemergence, 31 g ai/ha): 0 | Plant response rating, Crabgrass, Large (large crabgrass; 16 g ai/ha, preemergence): 0 | Crabgrass, Large plant response rating (large crabgrass; 62 g ai/ha, Preemergence): 50 | Crabgrass, Large plant response rating (large crabgrass; 125 g ai/ha, preemergence): 50 | Plant response rating, Crabgrass, Large (large crabgrass; Preemergence, 31 g ai/ha): 35

CC(c1c(C(F)(F)F)nn(C)c1OCC(F)(F)F)S(=O)(=O)c1cccc[n+]1[O-] (racemic) [Compound 33]
Plant response rating, Dayflower (Virginia dayflower; 16 g ai/ha, preemergence): 60 | Dayflower plant response rating (Virginia dayflower; 62 g ai/ha, Preemergence): 98 | Dayflower plant response rating (Virginia dayflower; 125 g ai/ha, preemergence): 100 | Plant response rating, Dayflower (Virginia dayflower; Preemergence, 31 g ai/ha): 90 | Plant response rating, Surinam Grass (Surinam grass; 16 g ai/ha, preemergence): 20 | Surinam Grass plant response rating (Surinam grass; preemergence): 100 | Plant response rating, Surinam Grass (Surinam grass; Preemergence, 31 g ai/ha): 100 | Plant response rating, Guineagrass (guineagrass; 16 g ai/ha, preemergence): 70 | Guineagrass plant response rating (guineagrass; 62 g ai/ha, Preemergence): 100 | Guineagrass plant response rating (guineagrass; 125 g ai/ha, preemergence): 100 | Plant response rating, Guineagrass (guineagrass; Preemergence, 31 g ai/ha): 100 | Plant response rating, Sandbur (southern sandbur; 16 g ai/ha, preemergence): 100 | Sandbur plant response rating (southern sandbur; preemergence): 100 | Plant response rating, Sandbur (southern sandbur; Preemergence, 62 g ai/ha): 100 | Plant response rating, Sandbur (southern sandbur; Preemergence, 31 g ai/ha): 100 | Plant response rating, Ryegrass, Italian (Italian ryegrass; 16 g ai/ha, preemergence): 60 | Ryegrass, Italian plant response rating (Italian ryegrass; preemergence): 100 | Plant response rating, Ryegrass, Italian (Italian ryegrass; Preemergence, 62 g ai/ha): 100 | Plant response rating, Ryegrass, Italian (Italian ryegrass; Preemergence, 31 g ai/ha): 100 | Plant response rating, Field Bindweed (field bindweed; 16 g ai/ha, preemergence): 0 | Field Bindweed plant response rating (field bindweed; 62 g ai/ha, Preemergence): 50 | Field Bindweed plant response rating (field bindweed; 125 g ai/ha, preemergence): 60 | Plant response rating, Field Bindweed (field bindweed; Preemergence, 31 g ai/ha): 0 | Plant response rating, Mallow (common mallow; 16 g ai/ha, preemergence): 100 | Mallow plant response rating (common mallow; 62 g ai/ha, Preemergence): 100 | Mallow plant response rating (common mallow; 125 g ai/ha, preemergence): 100 | Plant response rating, Mallow (common mallow; Preemergence, 31 g ai/ha): 100 | Plant response rating, Black Mustard (mustard; 16 g ai/ha, preemergence): 10 | Black Mustard plant response rating (mustard; 62 g ai/ha, Preemergence): 100 | Black Mustard plant response rating (mustard; 125 g ai/ha, preemergence): 100 | Plant response rating, Black Mustard (mustard; Preemergence, 31 g ai/ha): 65 | Plant response rating, Bluegrass (annual bluegrass; 16 g ai/ha, preemergence): 35 | Bluegrass plant response rating (annual bluegrass; 62 g ai/ha, Preemergence): 100 | Bluegrass plant response rating (annual bluegrass; 125 g ai/ha, preemergence): 100 | Plant response rating, Bluegrass (annual bluegrass; Preemergence, 31 g ai/ha): 65 | Plant response rating, Quackgrass (quackgrass; 16 g ai/ha, preemergence): 0 | Quackgrass plant response rating (quackgrass; 62 g ai/ha, Preemergence): 75 | Quackgrass plant response rating (quackgrass; 125 g ai/ha, preemergence): 95 | Plant response rating, Quackgrass (quackgrass; Preemergence, 31 g ai/ha): 25 | Plant response rating, Barnyardgrass (barnyardgrass; [1]): 100 | Barnyardgrass plant response rating (barnyardgrass; [2]): 100 | Barnyardgrass plant response rating (barnyardgrass; [3]): 100 | Plant response rating, Barnyardgrass (barnyardgrass; [4]): 100 | Plant response rating, Purslane (common purslane; 16 g ai/ha, preemergence): 0 | Purslane plant response rating (common purslane; 62 g ai/ha, Preemergence): 65 | Purslane plant response rating (common purslane; 125 g ai/ha, preemergence): 100 | Plant response rating, Purslane (common purslane; Preemergence, 31 g ai/ha): 20 | Plant response rating, Dallisgrass (dallisgrass; 16 g ai/ha, preemergence): 30 | Dallisgrass plant response rating (dallisgrass; 62 g ai/ha, Preemergence): 80 | Dallisgrass plant response rating (dallisgrass; 125 g ai/ha, preemergence): 100 | Plant response rating, Dallisgrass (dallisgrass; Preemergence, 31 g ai/ha): 65 | Groundsel plant response rating (common groundsel): 100 | Plant response rating, Kochia (kochia; 16 g ai/ha, preemergence): 0 | Kochia plant response rating (kochia; 62 g ai/ha, Preemergence): 70 | Kochia plant response rating (kochia; 125 g ai/ha, preemergence): 100 | Plant response rating, Kochia (kochia; Preemergence, 31 g ai/ha): 50 | Plant response rating, Crabgrass, Large (large crabgrass; 16 g ai/ha, preemergence): 15 | Crabgrass, Large plant response rating (large crabgrass; 62 g ai/ha, Preemergence): 85 | Crabgrass, Large plant response rating (large crabgrass; 125 g ai/ha, preemergence): 100 | Plant response rating, Crabgrass, Large (large crabgrass; Preemergence, 31 g ai/ha): 35
